Test results taken from patent US20220228112A1, “MEDIUM FOR CULTURING HEPATOCYTE, METHOD OF PRODUCING HEPATOCYTE, AND HEPATOCYTE” (FUJIFILM Corporation, priority 2019, published 2022).

System: human iPS cell-derived hepatocytes
Assay: P450-Glo CYP3A4 assay, CYP3A4 activity value per cell
Format: cell-based
Conditions: FIG. 1C; added to medium that does not contain FBS, EGF and A83-01; culture period of 1 week
Procedure: For the cell culture medium, to a medium obtained by mixing equal amounts of a DMEM/F12 basal medium and an RPMI 1640 basal medium, each of the components was added so that the concentration thereof was to be the following final concentration.
Further, to the above composition, the following components were added in combination to prepare culture media for various hepatocytes,
Using the above-described various media, human iPS cell-derived hepatocytes (FUJIFILM Wako Pure Chemical Corporation, Cat #: C1026) were seeded on a collagen-coated 96-well plate at 1×10^5 cells per well and cultured in an incubator at 37° C. and 5% carbon dioxide gas, and the medium was exchanged every 24 hours. The luminescence intensity by a P450-Glo CYP3A4 assay (Promega Corporation) was measured by using an EnSpire multimode plate reader (PerkinElmer, Inc.) and corrected by the number of cells in the well to calculate the CYP3A4 activity value per cell in the culture period of 1 week.

NC(=O)c1cccnc1 [nicotinamide]
effect on function of hepatocytes (CYP3A4 activity per cell): positive factors for improving the function of hepatocytes
